{
  "source": "patent US6914045B2",
  "about": "“Glycopeptide antibiotics” (Wyeth Holdings Corporation, priority 2001, dated 2005)",
  "assay_in_all_cases": "in vitro antibacterial evaluation, MIC by broth dilution",
  "type_in_all_cases": "cell-based",
  "key": {"[1]": {"system": "Escherichia coli", "conditions": "18 hours at 35° C."}, "[2]": {"system": "Staphylococcus sp.", "conditions": "broth dilution, 18 hours at 35° C.", "experimental": "(§1) Methods for in vitro Antibacterial Evaluation (Table 1)\n(§2) The minimum inhibitory concentration (MIC), the lowest concentration of the antibiotic which inhibits growth of the test organism, is determined by the broth dilution method using Muller-Hinton II […] (Baltimore Biological Laboratories) following the recommendations of the National Committee for Clinical Laboratory Standards [Methods for dilution antimicrobial susceptibility tests for bacteria that grow aerobically, approved standard M7-A2, National Committee for Clinical Laboratory Standards, Villanova, Pa.].\n(§3) An inoculum level of 5×10^5 CFU/mL, and a range of antibiotic concentrations (64-0.06 μg/mL) is used. […] The test organisms include a spectrum of Gram-positive bacteria comprised of Staphylococcus sp., Streptococcus sp. and Enterococcus sp. These organisms include recent clinical isolates that are resistant to methicillin, penicillin and/or vancomycin."}, "[3]": {"system": "Enterococcus sp.", "conditions": "broth dilution, 18 hours at 35° C.", "experimental": "as §1, §2, §3"}, "[4]": {"system": "Streptococcus sp.", "conditions": "broth dilution, 18 hours at 35° C.", "experimental": "as §1, §2, §3"}},
  "data": [
    {"smiles": "CC(c1ccccc1)C1NC(=O)CNC(=O)C(CO)NC(=O)C(C(O)C2CNC(=N)N2C2OC(CO)C(O)C3OC(C)(C)OC32)NC(=O)C(C(O)C2CNC(=N)N2)NC(=O)C(Cc2ccc(OC3OC(CO)C(OC4OC(CO)C(O)C(O)C4O)C4OC(C)(C)OC34)cc2)NC1=O", "note": "(centres unmarked) [Example 229]", "values": [
      {"measurement": "MIC Escherichia coli (ATCC 25922)", "setting": "[1]", "result": ">128", "unit": "µg/mL"},
      {"measurement": "MIC Escherichia coli (GC 4559)", "setting": "[1]", "result": ">128", "unit": "µg/mL"},
      {"measurement": "MIC Escherichia coli (GC 4560)", "setting": "[1]", "result": ">128", "unit": "µg/mL"},
      {"measurement": "MIC Coagulase Negative Staphylococcus (GC 4547)", "setting": "[2]", "result": ">128", "unit": "µg/mL"},
      {"measurement": "MIC Coagulase Negative Staphylococcus (GC 4548)", "setting": "[2]", "result": ">128", "unit": "µg/mL"},
      {"measurement": "MIC Coagulase Negative Staphylococcus (GC 4549)", "setting": "[2]", "result": ">128", "unit": "µg/mL"},
      {"measurement": "MIC Coagulase Negative Staphylococcus (GC 4551)", "setting": "[2]", "result": ">128", "unit": "µg/mL"},
      {"measurement": "MIC Coagulase Negative Staphylococcus (GC 6257)", "setting": "[2]", "result": ">128", "unit": "µg/mL"},
      {"measurement": "MIC Staphylococcus aureus-SMITH (GC 4543)", "setting": "[2]", "result": ">128", "unit": "µg/mL"},
      {"measurement": "MIC Staphylococcus haemolyticus (GC 4546)", "setting": "[2]", "result": ">128", "unit": "µg/mL"},
      {"measurement": "MIC Staphylococcus aureus-SMITH (GC 4543)", "setting": "[2]; strain GC 4543", "result": ">128", "unit": "µg/mL"},
      {"measurement": "MIC Staphylococcus haemolyticus (GC 4546)", "setting": "[2]; strain GC 4546", "result": ">128", "unit": "µg/mL"},
      {"measurement": "MIC Coagulase Negative Staphylococcus (GC 4547)", "setting": "[2]; strain GC 4547", "result": ">128", "unit": "µg/mL"},
      {"measurement": "MIC Coagulase Negative Staphylococcus (GC 4548)", "setting": "[2]; strain GC 4548", "result": ">128", "unit": "µg/mL"},
      {"measurement": "MIC Coagulase Negative Staphylococcus (GC 4549)", "setting": "[2]; strain GC 4549", "result": ">128", "unit": "µg/mL"},
      {"measurement": "MIC Coagulase Negative Staphylococcus (GC 4551)", "setting": "[2]; strain GC 4551", "result": ">128", "unit": "µg/mL"},
      {"measurement": "MIC Coagulase Negative Staphylococcus (GC 6257)", "setting": "[2]; strain GC 6257", "result": ">128", "unit": "µg/mL"},
      {"measurement": "MIC Staphylococcus aureus (ATCC 29213)", "setting": "[2]; strain ATCC 29213", "result": ">128", "unit": "µg/mL"},
      {"measurement": "MIC Staphylococcus aureus (GC 1131)", "setting": "[2]; strain GC 1131", "result": ">128", "unit": "µg/mL"},
      {"measurement": "MIC Staphylococcus aureus (GC 3051)", "setting": "[2]; strain GC 3051", "result": ">128", "unit": "µg/mL"},
      {"measurement": "MIC Staphylococcus aureus (GC 3053)", "setting": "[2]; strain GC 3053", "result": ">128", "unit": "µg/mL"},
      {"measurement": "MIC Staphylococcus aureus (GC 4541)", "setting": "[2]; strain GC 4541", "result": ">128", "unit": "µg/mL"},
      {"measurement": "MIC Staphylococcus aureus (GC 4542)", "setting": "[2]; strain GC 4542", "result": ">128", "unit": "µg/mL"},
      {"measurement": "MIC Staphylococcus aureus (GC 4544)", "setting": "[2]; strain GC 4544", "result": ">128", "unit": "µg/mL"},
      {"measurement": "MIC Staphylococcus aureus (GC 4545)", "setting": "[2]; strain GC 4545", "result": ">128", "unit": "µg/mL"},
      {"measurement": "MIC Enterococcus avium (GC 4558)", "setting": "[3]", "result": 128, "unit": "µg/mL"},
      {"measurement": "MIC Enterococcus faecalis (ATCC 29212)", "setting": "[3]", "result": ">128", "unit": "µg/mL"},
      {"measurement": "MIC Enterococcus faecalis (GC 2242)", "setting": "[3]", "result": ">128", "unit": "µg/mL"},
      {"measurement": "MIC Enterococcus faecalis (GC 2691)", "setting": "[3]", "result": ">128", "unit": "µg/mL"},
      {"measurement": "MIC Enterococcus faecalis (GC 3059)", "setting": "[3]", "result": ">128", "unit": "µg/mL"},
      {"measurement": "MIC Enterococcus faecalis (GC 4552)", "setting": "[3]", "result": ">128", "unit": "µg/mL"},
      {"measurement": "MIC Enterococcus faecalis (GC 4553)", "setting": "[3]", "result": ">128", "unit": "µg/mL"},
      {"measurement": "MIC Enterococcus faecalis (GC 4554)", "setting": "[3]", "result": ">128", "unit": "µg/mL"},
      {"measurement": "MIC Enterococcus faecalis (GC 6189)", "setting": "[3]", "result": ">128", "unit": "µg/mL"},
      {"measurement": "MIC Enterococcus faecium (GC 2243)", "setting": "[3]", "result": ">128", "unit": "µg/mL"},
      {"measurement": "MIC Enterococcus faecium (GC 4556)", "setting": "[3]", "result": ">128", "unit": "µg/mL"},
      {"measurement": "MIC Enterococcus faecium (GC 4557)", "setting": "[3]", "result": ">128", "unit": "µg/mL"},
      {"measurement": "MIC Enterococcus faecalis (ATCC 29212)", "setting": "[3]; inoculum 5×10^5 CFU/mL, strain ATCC 29212", "result": ">128", "unit": "µg/mL"},
      {"measurement": "MIC Enterococcus faecalis (GC 2242)", "setting": "[3]; inoculum 5×10^5 CFU/mL, strain GC 2242", "result": ">128", "unit": "µg/mL"},
      {"measurement": "MIC Enterococcus faecium (GC 2243)", "setting": "[3]; inoculum 5×10^5 CFU/mL, strain GC 2243", "result": ">128", "unit": "µg/mL"},
      {"measurement": "MIC Enterococcus faecalis (GC 2691)", "setting": "[3]; inoculum 5×10^5 CFU/mL, strain GC 2691", "result": ">128", "unit": "µg/mL"},
      {"measurement": "MIC Enterococcus faecalis (GC 3059)", "setting": "[3]; inoculum 5×10^5 CFU/mL, strain GC 3059", "result": ">128", "unit": "µg/mL"},
      {"measurement": "MIC Enterococcus faecalis (GC 4552)", "setting": "[3]; inoculum 5×10^5 CFU/mL, strain GC 4552", "result": ">128", "unit": "µg/mL"},
      {"measurement": "MIC Enterococcus faecalis (GC 4553)", "setting": "[3]; inoculum 5×10^5 CFU/mL, strain GC 4553", "result": ">128", "unit": "µg/mL"},
      {"measurement": "MIC Enterococcus faecalis (GC 4554)", "setting": "[3]; inoculum 5×10^5 CFU/mL, strain GC 4554", "result": ">128", "unit": "µg/mL"},
      {"measurement": "MIC Enterococcus faecium (GC 4556)", "setting": "[3]; inoculum 5×10^5 CFU/mL, strain GC 4556", "result": ">128", "unit": "µg/mL"},
      {"measurement": "MIC Enterococcus faecium (GC 4557)", "setting": "[3]; inoculum 5×10^5 CFU/mL, strain GC 4557", "result": ">128", "unit": "µg/mL"},
      {"measurement": "MIC Enterococcus avium (GC 4558)", "setting": "[3]; inoculum 5×10^5 CFU/mL, strain GC 4558", "result": 128, "unit": "µg/mL"},
      {"measurement": "MIC Enterococcus faecalis (GC 6189)", "setting": "[3]; inoculum 5×10^5 CFU/mL, strain GC 6189", "result": ">128", "unit": "µg/mL"},
      {"measurement": "MIC Streptococcus agalactiae (GC 4564)", "setting": "[4]", "result": ">128", "unit": "µg/mL"},
      {"measurement": "MIC Streptococcus pneumoniae (ATCC 6301)", "setting": "[4]", "result": ">128", "unit": "µg/mL"},
      {"measurement": "MIC Streptococcus pneumoniae (GC 1894)", "setting": "[4]", "result": ">128", "unit": "µg/mL"},
      {"measurement": "MIC Streptococcus pneumoniae (GC 4565)", "setting": "[4]", "result": ">128", "unit": "µg/mL"},
      {"measurement": "MIC Streptococcus pyogenes (GC 4563)", "setting": "[4]", "result": ">128", "unit": "µg/mL"},
      {"measurement": "MIC Streptococcus pneumoniae (ATCC 6301)", "setting": "[4]; inoculum 5×10^5 CFU/mL, strain ATCC 6301", "result": ">128", "unit": "µg/mL"},
      {"measurement": "MIC Streptococcus pneumoniae (GC 1894)", "setting": "[4]; inoculum 5×10^5 CFU/mL, strain GC 1894", "result": ">128", "unit": "µg/mL"},
      {"measurement": "MIC Streptococcus pyogenes (GC 4563)", "setting": "[4]; inoculum 5×10^5 CFU/mL, strain GC 4563", "result": ">128", "unit": "µg/mL"},
      {"measurement": "MIC Streptococcus agalactiae (GC 4564)", "setting": "[4]; inoculum 5×10^5 CFU/mL, strain GC 4564", "result": ">128", "unit": "µg/mL"},
      {"measurement": "MIC Streptococcus pneumoniae (GC 4565)", "setting": "[4]; inoculum 5×10^5 CFU/mL, strain GC 4565", "result": ">128", "unit": "µg/mL"}
    ]}
  ]
}
